From ChEMBL document CHEMBL3046735, “11-Chloro-3-methyl-3H-imidazo[4,5-a]acridine (CMIA) as a potent and selective antimicrobial agent against clinical isolates of highly antibiotic-resistant Acinetobacter baumannii” (Med Chem Res, 2012)
In brackets after ≈: the same amount, converted by molar mass.

How the values were obtained:
[1] = test system: Staphylococcus aureus; assay: Bactericidal activity against Staphylococcus aureus wound isolate after 24 hr by NCCLS dilution tube method; format: functional
[2] = test system: Klebsiella pneumoniae; assay: Bactericidal activity against Klebsiella pneumoniae urine isolate after 24 hr by NCCLS dilution tube method; format: functional
[3] = test system: Acinetobacter baumannii; assay: Bactericidal activity against multidrug-resistant Acinetobacter baumannii urine isolate after 24 hr by NCCLS dilution tube method; format: functional
[4] = test system: Escherichia coli; assay: Bactericidal activity against Escherichia coli urine isolate after 24 hr by NCCLS dilution tube method; format: functional
[5] = test system: Pseudomonas aeruginosa; assay: Bactericidal activity against Pseudomonas aeruginosa wound isolate after 24 hr by NCCLS dilution tube method; format: functional
[6] = test system: Pseudomonas aeruginosa; assay: Bactericidal activity against Pseudomonas aeruginosa urine isolate after 24 hr by NCCLS dilution tube method; format: functional
[7] = test system: Staphylococcus aureus; assay: Bactericidal activity against Staphylococcus aureus urine isolate after 24 hr by NCCLS dilution tube method; format: functional
[8] = test system: Staphylococcus epidermidis; assay: Bactericidal activity against Staphylococcus epidermidis eye isolate after 24 hr by NCCLS dilution tube method; format: functional
[9] = test system: Klebsiella pneumoniae; assay: Bactericidal activity against Klebsiella pneumoniae wound isolate after 24 hr by NCCLS dilution tube method; format: functional
[10] = test system: Acinetobacter baumannii; assay: Bactericidal activity against multidrug-resistant Acinetobacter baumannii wound isolate after 24 hr by NCCLS dilution tube method; format: functional
[11] = test system: Acinetobacter baumannii; assay: Bactericidal activity against multidrug-resistant Acinetobacter baumannii bronchi isolate after 24 hr by NCCLS dilution tube method; format: functional
[12] = test system: Escherichia coli; assay: Bactericidal activity against Escherichia coli bronchi isolate after 24 hr by NCCLS dilution tube method; format: functional
[13] = test system: Staphylococcus saprophyticus; assay: Bactericidal activity against Staphylococcus saprophyticus bronchi isolate after 24 hr by NCCLS dilution tube method; format: functional
[14] = test system: Klebsiella pneumoniae; assay: Bactericidal activity against Klebsiella pneumoniae PTCC 1053 after 24 hr by NCCLS dilution tube method; format: functional; conditions: PTCC 1053, 24 h
[15] = Octanol-water partition coefficient, log D of the compound at pH 7.4 after 6 hr by shake flask method; format: physicochemical
[16] = test system: Staphylococcus aureus; assay: Bactericidal activity against Staphylococcus aureus PTCC 1074 after 24 hr by NCCLS dilution tube method; format: functional; conditions: PTCC 1074, 24 h
[17] = test system: Escherichia coli; assay: Bactericidal activity against Escherichia coli PTCC 1338 after 24 hr by NCCLS dilution tube method; format: functional; conditions: PTCC 1338, 24 h
[18] = test system: Pseudomonas aeruginosa; assay: Bactericidal activity against Pseudomonas aeruginosa PTCC 1431 after 24 hr by NCCLS dilution tube method; format: functional; conditions: PTCC 1431, 24 h

Compound | MBC [1] [µg/mL] | MBC [2] [µg/mL] | MBC [3] [µg/mL] | MBC [4] [µg/mL] | MBC [5] [µg/mL] | MBC [6] [µg/mL] | MBC [7] [µg/mL] | MBC [8] [µg/mL] | MBC [9] [µg/mL] | MBC [10] [µg/mL] | MBC [11] [µg/mL] | MBC [12] [µg/mL] | MBC [13] [µg/mL] | MBC [14] [µg/mL] | logD at 6 h [15] | MBC [16] [µg/mL] | MBC [17] [µg/mL] | MBC [18] [µg/mL]
CN(C)[C@@H]1C(O)=C(C(N)=O)C(=O)[C@@]2(O)C(O)=C3C(=O)c4c(O)cccc4[C@@](C)(O)[C@H]3C[C@@H]12 [TETRACYCLINE] | 12.5 (≈ 28.1 µM) | 26 (≈ 58.5 µM) | 87.5 (≈ 197 µM) | 20.4 (≈ 45.9 µM) | 54.7 (≈ 123 µM) | 21.2 (≈ 47.7 µM) | 26.3 (≈ 59.2 µM) | 81.2 (≈ 183 µM) | 30.3 (≈ 68.2 µM) |  |  |  |  |  |  |  |  | 
C=CC1=C(C(=O)O)N2C(=O)[C@@H](NC(=O)/C(=N\OCC(=O)O)c3csc(N)n3)[C@H]2SC1 [CEFIXIME] | 33.1 (≈ 73 µM) | 20.8 (≈ 45.9 µM) | 75 (≈ 165 µM) | 12.1 (≈ 26.7 µM) | 96.9 (≈ 214 µM) | 20 (≈ 44.1 µM) | 45.2 (≈ 99.7 µM) | 28.7 (≈ 63.3 µM) | 44.6 (≈ 98.4 µM) | 82.8 (≈ 183 µM) | 87.5 (≈ 193 µM) | 23.1 (≈ 50.9 µM) | 24.5 (≈ 54 µM) |  |  |  |  | 
NC[C@H]1O[C@H](O[C@H]2[C@H](O)[C@@H](O[C@H]3O[C@H](CO)[C@@H](O)[C@H](N)[C@H]3O)[C@H](N)C[C@@H]2N)[C@H](O)[C@@H](O)[C@@H]1O [KANAMYCIN] | 17.9 (≈ 36.9 µM) | 12.5 (≈ 25.8 µM) | > 100 | 84.4 (≈ 174 µM) | 48.4 (≈ 99.9 µM) | 47.9 (≈ 98.9 µM) | 55.1 (≈ 114 µM) | 25 (≈ 51.6 µM) | 16 (≈ 33 µM) | > 100 | > 100 | 85.5 (≈ 176 µM) | 40 (≈ 82.6 µM) |  |  |  |  | 
CO/N=C(\C(=O)N[C@@H]1C(=O)N2C(C(=O)O)=C(COC(C)=O)CS[C@H]12)c1csc(N)n1 [CEFOTAXIME] | 12.7 (≈ 27.9 µM) | 25 (≈ 54.9 µM) | 90.6 (≈ 199 µM) | 17.3 (≈ 38 µM) | 81.2 (≈ 178 µM) | 16.3 (≈ 35.8 µM) | 77.2 (≈ 169 µM) | 75 (≈ 165 µM) | 51.8 (≈ 114 µM) | 95.8 (≈ 210 µM) | 96.9 (≈ 213 µM) | 24.5 (≈ 53.8 µM) | 95 (≈ 209 µM) |  |  |  |  | 
CCCCCn1cnc2c3c(Cl)c4ccccc4nc3ccc21 |  |  |  |  |  |  |  |  |  |  |  |  |  | 25 (≈ 77.2 µM) | 1.48 | 12.5 (≈ 38.6 µM) | 50 (≈ 154 µM) | > 100
CC1(C)S[C@@H]2[C@H](NC(=O)[C@H](N)c3ccc(O)cc3)C(=O)N2[C@H]1C(=O)O [AMOXICILLIN] | > 100 | > 100 | > 100 | 76.2 (≈ 209 µM) | > 100 | > 100 | > 100 | > 100 | > 100 | > 100 | > 100 | > 100 | > 100 |  |  |  |  | 
CC(C)(O/N=C(\C(=O)N[C@@H]1C(=O)N2C(C(=O)[O-])=C(C[n+]3ccccc3)CS[C@H]12)c1csc(N)n1)C(=O)O [CEFTAZIDIME] | 63.5 (≈ 116 µM) | 22.9 (≈ 41.9 µM) | 93.7 (≈ 171 µM) | 14.4 (≈ 26.3 µM) | 90.6 (≈ 166 µM) | 43.8 (≈ 80.1 µM) | 80.2 (≈ 147 µM) | 73.7 (≈ 135 µM) | 92.8 (≈ 170 µM) | 91.7 (≈ 168 µM) | 90.6 (≈ 166 µM) | 45.4 (≈ 83.1 µM) | 82.4 (≈ 151 µM) |  |  |  |  | 
CCCn1cnc2c3c(Cl)c4ccccc4nc3ccc21 |  |  |  |  |  |  |  |  |  |  |  |  |  | 25 (≈ 84.5 µM) | 1.09 | 6.25 (≈ 21.1 µM) | 25 (≈ 84.5 µM) | > 100
CCn1cc(C(=O)O)c(=O)c2ccc(C)nc21 [NALIDIXIC ACID] | 81.6 (≈ 351 µM) | 29.1 (≈ 125 µM) | > 100 | 24 (≈ 103 µM) | > 100 | > 100 | > 100 | > 100 | 25.9 (≈ 112 µM) | > 100 | > 100 | 22.7 (≈ 97.7 µM) | > 100 |  |  |  |  | 
CCn1cc(C(=O)O)c(=O)c2cc(F)c(N3CCNCC3)cc21 [NORFLOXACIN] | 9.8 (≈ 30.7 µM) | 11.5 (≈ 36 µM) | 62.5 (≈ 196 µM) | 7.3 (≈ 22.9 µM) | 25.8 (≈ 80.8 µM) | 13.7 (≈ 42.9 µM) | 11.5 (≈ 36 µM) | 75 (≈ 235 µM) | 50 (≈ 157 µM) | 41.7 (≈ 131 µM) | 37.5 (≈ 117 µM) | 12.2 (≈ 38.2 µM) | 50 (≈ 157 µM) |  |  |  |  | 
NC[C@H]1O[C@H](O[C@H]2[C@H](O)[C@@H](O[C@H]3O[C@H](CO)[C@@H](O)[C@H](N)[C@H]3O)[C@H](N)C[C@@H]2N)[C@H](N)C[C@@H]1O [TOBRAMYCIN] | 17.3 (≈ 37 µM) | 28.1 (≈ 60.1 µM) | 78.1 (≈ 167 µM) | 64.3 (≈ 138 µM) | 26.5 (≈ 56.7 µM) | 13.7 (≈ 29.3 µM) | 11.8 (≈ 25.2 µM) | 50 (≈ 107 µM) | 24.1 (≈ 51.5 µM) | 83.3 (≈ 178 µM) | 68 (≈ 145 µM) | 74 (≈ 158 µM) | 25 (≈ 53.5 µM) |  |  |  |  | 
Cn1cnc2c3c(Cl)c4ccccc4nc3ccc21 | 72.3 (≈ 270 µM) | 47.9 (≈ 179 µM) | 10.9 (≈ 40.7 µM) | 56.4 (≈ 211 µM) | 75 (≈ 280 µM) | 85 (≈ 317 µM) | 91 (≈ 340 µM) | 73.7 (≈ 275 µM) | 85.7 (≈ 320 µM) | 2 (≈ 7.47 µM) | 4.7 (≈ 17.6 µM) | 89.3 (≈ 334 µM) | 93.7 (≈ 350 µM) | 12.5 (≈ 46.7 µM) | 0.52 | 3.1 (≈ 11.6 µM) | 6.25 (≈ 23.3 µM) | 75 (≈ 280 µM)
